Data taken from patent US4728658A, “Pyridine derivatives” (John Wyeth & Brother Limited, priority 1984, dated 1988).
Where two headings read alike, the source gives them in different places.

Biological target: T1, H^+ /K^+ ATPase (Oryctolagus cuniculus, UniProt P27112)
T1 construct: Rabbit gastric glands are isolated from gastric mucosa; from tissue; host or cells: rabbit isolated gastric glands (gastric mucosa, corpus region of the stomach)
Assay: Inhibition of 14C-aminopyrine uptake in rabbit isolated gastric glands stimulated by DBcAMP or high K+ (anti-secretory activity)
Type: cell-based
Settings: for antisecretory activity: result in words in the introduction, test not named; for inhibition at 100 µM: 10^-4 M, % inhibition of maximum response to secretagogue
Procedure: Compounds of formula I may be tested for anti-secretory activity by their ability to inhibit the highly specific proton transporting enzyme H^+ /K^+ ATPase.
Potential H^+ /K^+ ATPase inhibitors are evaluated by a technique involving the measurement of aminopyrine accumulation in rabbit isolated gastric glands. Aminopyrine accumulates in acid-secreting cells; therefore, uptake of aminopyrine is increased by secretagogues and an inhibitor of acid secretion will reduce the response to one or more secretagogues depending upon its site of action.
The following test procedure is used:
Rabbit gastric glands are isolated from gastric mucosa from the corpus region of the stomach by a method based on one described by Berglindh T., Obrink K. J., Acta Physiol. Scand.
Compounds are tested at a concentration of 10^-4 M, for their ability to inhibit ^14 C-aminopyrine uptake in gastric glands, stimulated by DBcAMP and high K^+ respectively. Results are expressed as the % inhibition of the maximum response to the secretagogue induced by the test compound.

[1] = 14C-aminopyrine uptake in rabbit gastric glands stimulated by DBcAMP, read-out: % Inhibition to stimulation by: DBcAMP
[2] = 14C-aminopyrine uptake in rabbit gastric glands stimulated by high K^+, read-out: % Inhibition to stimulation by: K^+

T1 sequence (P27112 whole entry): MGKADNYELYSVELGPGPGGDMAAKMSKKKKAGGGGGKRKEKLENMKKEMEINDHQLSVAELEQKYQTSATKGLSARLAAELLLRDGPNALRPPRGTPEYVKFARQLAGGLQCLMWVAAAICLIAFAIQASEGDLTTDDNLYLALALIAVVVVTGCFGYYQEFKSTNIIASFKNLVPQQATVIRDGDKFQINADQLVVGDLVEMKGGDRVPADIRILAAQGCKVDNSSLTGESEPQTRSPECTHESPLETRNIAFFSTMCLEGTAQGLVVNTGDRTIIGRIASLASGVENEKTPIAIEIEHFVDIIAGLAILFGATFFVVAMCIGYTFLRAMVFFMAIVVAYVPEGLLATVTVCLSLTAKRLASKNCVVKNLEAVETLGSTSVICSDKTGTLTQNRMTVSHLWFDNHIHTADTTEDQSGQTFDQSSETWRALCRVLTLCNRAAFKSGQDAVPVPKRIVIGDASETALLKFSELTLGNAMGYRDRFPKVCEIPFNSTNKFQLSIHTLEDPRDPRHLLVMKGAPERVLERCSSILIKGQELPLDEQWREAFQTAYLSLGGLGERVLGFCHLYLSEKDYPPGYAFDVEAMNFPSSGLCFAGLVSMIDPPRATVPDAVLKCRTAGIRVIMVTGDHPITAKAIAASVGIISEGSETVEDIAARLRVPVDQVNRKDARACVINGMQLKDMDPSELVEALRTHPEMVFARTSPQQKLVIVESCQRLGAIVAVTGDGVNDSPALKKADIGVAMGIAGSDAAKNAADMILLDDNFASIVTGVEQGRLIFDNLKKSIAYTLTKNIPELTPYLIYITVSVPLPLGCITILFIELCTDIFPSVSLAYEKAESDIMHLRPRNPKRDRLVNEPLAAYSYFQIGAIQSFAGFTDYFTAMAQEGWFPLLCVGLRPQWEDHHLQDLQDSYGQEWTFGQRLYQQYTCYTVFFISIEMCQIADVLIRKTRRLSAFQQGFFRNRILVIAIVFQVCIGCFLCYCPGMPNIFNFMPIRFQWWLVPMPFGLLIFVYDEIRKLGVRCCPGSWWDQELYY
T1 sequence (P18597 whole entry partner): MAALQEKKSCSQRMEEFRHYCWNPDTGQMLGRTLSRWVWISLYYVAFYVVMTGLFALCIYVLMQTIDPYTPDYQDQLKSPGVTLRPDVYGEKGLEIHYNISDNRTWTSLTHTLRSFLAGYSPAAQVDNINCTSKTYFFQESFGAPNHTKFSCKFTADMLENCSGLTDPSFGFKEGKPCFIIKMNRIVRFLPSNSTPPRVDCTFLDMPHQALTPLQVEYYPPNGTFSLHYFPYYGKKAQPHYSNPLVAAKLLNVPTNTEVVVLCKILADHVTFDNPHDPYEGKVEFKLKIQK

inhibition at 100 µM [1] [%] | inhibition at 100 µM [2] [%] | Structure (SMILES) | antisecretory activity
– | – | O=C(Nc1ccccc1Cl)c1cc[n+]([O-])cc1 [2-chlorophenyl, reference compound] | not active
20.5 | 27 | O=C(Nc1ccc(Cl)cc1NC(=O)c1cc[n+]([O-])cc1)c1cc[n+]([O-])cc1 [4-Chloro-N,N'-1,2-phenylenebis(4-pyridinecarboxamide-1-oxide)] | –
– | – | Nc1ccc(NC(=O)c2cc[n+]([O-])cc2)cc1 [4-amino, reference compound] | inactive
– | – | Nc1cccc(NC(=O)c2cc[n+]([O-])cc2)c1 [Example 3-amino, reference compound] | inactive
– | 36 | Nc1cc(Cl)c(Cl)cc1NC(=O)c1cc[n+]([O-])cc1 [N-(2-amino-4,5-dichlorophenyl)-4-pyridinecarboxamide-1-oxide] | –
106 | 130 | Nc1ccccc1NC(=O)c1cc[n+]([O-])cc1 [N-(2-aminophenyl)pyridine-4-carboxamide-1-oxide] | exhibited antisecretory activity
33 | 84 | O=C(Nc1ccc([N+](=O)[O-])cc1)c1cc[n+]([O-])cc1 [N-(4-nitrophenyl)pyridine-4-carboxamide-1-oxide] | –
– | 54 | Nc1ccccc1NC(=O)c1ccncc1 [N--(2-aminophenyl)pyridine-4-carboxamide, N-(2-aminophenyl)-4-pyridinecarboxamide] | –
– | 168 | O=C(Nc1ccc(Cl)c(C(F)(F)F)c1)c1cc[n+]([O-])cc1 [N-[4-chloro-3-(trifluoromethyl)phenyl]-4-pyridinecarboxamide-1-oxide] | –
– | – | O=C(Nc1ccccc1)c1cc[n+]([O-])cc1 [phenyl, reference compound] | not active

Structure (SMILES) | inhibition at 100 µM [1] [%] | inhibition at 100 µM [2] [%] | antisecretory activity
O=C(Nc1ccc(Cl)cc1)c1cc[n+]([O-])cc1 [N-(4-chlorophenyl)-4-pyridinecarboxamide-1-oxide] | 22 | 32 | exhibited antisecretory activity
